Read-outs that look alike come from different tables or passages of the source.

The test system of test [1] is ERK phosphorylation in KYSE-520 cells. Kind of test: Phospho-ERK cellular assay (Advanced phospho-ERK1/2 (Thr202/Tyr204) TR-FRET kit). It is filed as cell-based. As to conditions: KYSE-520 cells, 2 h at 37° C., TR-FRET, read-out: pERK IC50. The method, boiled down:
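KYSE-520 cells were treated 2 h at 37° C with serially diluted compounds, then lysed. Phospho-ERK1/2 (Thr202/Tyr204) was detected by TR-FRET after overnight antibody incubation at room temperature. IC50 came from a four-parameter logistic fit; lower signal reflects greater SHP2 inhibition.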

The target in test [2] is T1, SHP-2 enzyme (Met1-Leu525) (Homo sapiens, UniProt Q06124).
T1 construct: synthetized by Origene, Met1-Leu525, cat #TP750155; purchased Origene TP750155
T1 sequence (Q06124 1-525): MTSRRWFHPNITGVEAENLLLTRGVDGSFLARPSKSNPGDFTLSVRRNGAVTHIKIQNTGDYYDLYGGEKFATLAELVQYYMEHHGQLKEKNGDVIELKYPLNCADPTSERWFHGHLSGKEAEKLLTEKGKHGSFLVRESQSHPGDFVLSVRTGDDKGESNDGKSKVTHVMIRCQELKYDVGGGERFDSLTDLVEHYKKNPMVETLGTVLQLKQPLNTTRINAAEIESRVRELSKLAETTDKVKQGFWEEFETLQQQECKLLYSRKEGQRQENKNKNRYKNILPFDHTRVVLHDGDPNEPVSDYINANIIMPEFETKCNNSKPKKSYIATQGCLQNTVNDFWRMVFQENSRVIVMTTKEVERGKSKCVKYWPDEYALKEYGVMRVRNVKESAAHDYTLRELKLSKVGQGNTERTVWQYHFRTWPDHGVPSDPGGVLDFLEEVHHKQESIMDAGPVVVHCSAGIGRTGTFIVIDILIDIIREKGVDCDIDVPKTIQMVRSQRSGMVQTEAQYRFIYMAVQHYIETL
Kind of test: SHP2 inhibition enzymatic assay (DiFMUP substrate, IRS1 peptide activation). As to conditions: SHP2 wt; activated by 500 nM IRS1 peptide; 75 μM DiFMUP substrate. It is filed as biochemical. The procedure, abridged: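 SHP-2 (Met1-Leu525, 0.5 nM final) preincubated 30 min with compounds and IRS1 activating peptide in HEPES pH 7.2 buffer with NaCl, KCl, EDTA, tween-20, 5 mM DTT. DiFMUP then added for 30 min at room temperature and fluorescence read. IC50 from four-parameter logistic fit of % inhibition.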

With `CC1(N)CCN(c2nc3nc(Sc4ccnc5cccnc45)cnc3[nH]2)CC1` [Example 62, 1-(5-((1,5-naphthyridin-4-yl)thio)-1H-imidazo[4,5-b]pyrazin-2-yl)-4-methylpiperidin-4-amine], the IC50 is 1 to 5 µM in test [1] (Homo sapiens, KYSE-520, 2 h) and under 0.5 µM in test [2].

Take `N[C@@H]1c2ccccc2CC12CCN(c1nc3nc(Sc4ccn[nH]c4=O)cnc3[nH]1)CC2` [Example 234, (S)-4-((2-(1-amino-1,3-dihydrospiro[indene-2,4′-piperidin]-1′-yl)-1H-imidazo[4,5-b]pyrazin-5-yl)thio)pyridazin-3(2H)-one]: the IC50 in test [1] (Homo sapiens, KYSE-520, 2 h) was under 1 µM; in test [2], under 0.5 µM.

Regarding `Nc1cc(Sc2cnc3nc(N4CCC5(CC4)Cc4ccccc4[C@H]5N)[nH]c3n2)c(Cl)cn1` [Example 185, (S)-1′-(6-((2-amino-5-chloropyridin-4-yl)thio)-1H-imidazo[4,5-b]pyrazin-2-yl)-1,3-dihydrospiro[indene-2,4′-piperidin]-1-amine], the IC50 was under 1 µM in test [1] (Homo sapiens, KYSE-520, 2 h) and under 0.5 µM in test [2].

As for `N[C@@H]1c2cccnc2CC12CCN(c1nc3ncc(Sc4ccnc(NC5CC5)c4Cl)nc3[nH]1)CC2` [Example 161, (S)-1′-(6-((3-chloro-2-(cyclopropylamino)pyridin-4-yl)thio)-1H-imidazo[4,5-b]pyrazin-2-yl)-5,7-dihydrospiro[cyclopenta[b]pyridine-6,4′-piperidin]-5-amine], the half-maximal inhibitory concentration (IC50) is 1 to 5 µM in test [1] (Homo sapiens, KYSE-520, 2 h) and under 0.5 µM in test [2].

As for `N[C@@H]1c2cc(F)ccc2CC12CCN(c1nc3ncc(Sc4cccc5c4OCCN5)nc3[nH]1)CC2` [Example 184, (S)-1′-(6-((3,4-dihydro-2H-benzo[b][1,4]oxazin-8-yl)thio)-1H-imidazo[4,5-b]pyrazin-2-yl)-6-fluoro-1,3-dihydrospiro[indene-2,4′-piperidin]-1-amine], the IC50 is under 1 µM in test [1] (Homo sapiens, KYSE-520, 2 h) and under 0.5 µM in test [2].

`N[C@@H]1c2cccc(F)c2CC12CCN(c1nc3nc(Sc4ccncc4Cl)cnc3[nH]1)CC2` [Example 207, (S)-1′-(5-((3-chloropyridin-4-yl)thio)-1H-imidazo[4,5-b]pyrazin-2-yl)-4-fluoro-1,3-dihydrospiro[indene-2,4′-piperidin]-1-amine]: the IC50 in test [1] (Homo sapiens, KYSE-520, 2 h) was 1 to 5 µM; in test [1], under 1 µM; in test [2], under 0.5 µM.

In the case of `N[C@@H]1c2ccccc2CC12CCN(c1nc3ncc(Sc4ccnc5cccnc45)nc3[nH]1)CC2` [Example 164, (S)-1′-(6-((1,5-naphthyridin-4-yl)thio)-1H-imidazo[4,5-b]pyrazin-2-yl)-1,3-dihydrospiro[indene-2,4′-piperidin]-1-amine], the IC50 was under 1 µM in test [1] (Homo sapiens, KYSE-520, 2 h) and under 0.5 µM in test [2].

With `N#Cc1ncccc1Sc1cnc2[nH]c(N3CCC4(CC3)Cc3ccccc3[C@H]4N)nc2n1` [Example 217, (S)-3-((2-(1-amino-1,3-dihydrospiro[indene-2,4′-piperidin]-1′-yl)-1H-imidazo[4,5-b]pyrazin-5-yl)thio)picolinonitrile], the IC50 in test [1] (Homo sapiens, KYSE-520, 2 h) was under 1 µM; in test [2], under 0.5 µM.

For the compound `N[C@@H]1c2cc(F)ccc2CC12CCN(c1nc3ncc(Sc4ccncc4Cl)nc3[nH]1)CC2` [Example 183, (S)-1′-(6-((3-chloropyridin-4-yl)thio)-1H-imidazo[4,5-b]pyrazin-2-yl)-6-fluoro-1,3-dihydrospiro[indene-2,4′-piperidin]-1-amine], the IC50 in test [1] (Homo sapiens, KYSE-520, 2 h) was under 1 µM; in test [2], under 0.5 µM.

In the case of `N[C@@H]1c2ccccc2CC12CCN(c1nc3nc(Sc4ccnc(N5CC(O)C5)c4Cl)cnc3[nH]1)CC2` [Example 165, (S)-1-(4-((2-(1-amino-1,3-dihydrospiro[indene-2,4′-piperidin]-1′-yl)-1H-imidazo[4,5-b]pyrazin-5-yl)thio)-3-chloropyridin-2-yl)azetidin-3-ol], the IC50 was under 1 µM in test [1] (Homo sapiens, KYSE-520, 2 h) and under 0.5 µM in test [2].

Consider `CC1(N)CCN(c2nc3nc(Sc4ccnc5ccccc45)cnc3[nH]2)CC1` [Example 61, 4-methyl-1-(5-(quinolin-4-ylthio)-1H-imidazo[4,5-b]pyrazin-2-yl)piperidin-4-amine], for which the concentration for half-maximal inhibition (IC50) in test [1] (Homo sapiens, KYSE-520, 2 h) is 1 to 5 µM; in test [2], under 0.5 µM.

Regarding `N#Cc1ccc2c(c1)[C@@H](N)C1(CCN(c3nc4nc(Sc5ccnc(N)c5Cl)cnc4[nH]3)CC1)C2` [Example 256, (S)-1-amino-1′-(5-((2-amino-3-chloropyridin-4-yl)thio)-1H-imidazo[4,5-b]pyrazin-2-yl)-1,3-dihydrospiro[indene-2,4′-piperidine]-6-carbonitrile], the half-maximal inhibitory concentration (IC50) in test [1] (Homo sapiens, KYSE-520, 2 h) is over 5 µM; in test [2], under 0.5 µM.

For the compound `N[C@@H]1c2ccccc2CC12CCN(c1nc3nc(Sc4ccc[nH]c4=O)cnc3[nH]1)CC2` [Example 238, (S)-3-((2-(1-amino-1,3-dihydrospiro[indene-2,4′-piperidin]-1′-yl)-1H-imidazo[4,5-b]pyrazin-5-yl)thio)pyridin-2(1H)-one], the IC50 in test [1] (Homo sapiens, KYSE-520, 2 h) was over 5 µM; in test [2] it was under 0.5 µM.

As to `CC1(N)CCN(c2nc3ncc(Sc4cccc(Cl)c4Cl)nc3[nH]2)CC1` [Example 22, 1-(5-((2,3-dichlorophenyl)thio)-1H-imidazo[4,5-b]pyrazin-2-yl)-4-methylpiperidin-4-amine], the IC50 in test [1] (Homo sapiens, KYSE-520, 2 h) is 1 to 5 µM; in test [2], under 0.5 µM.

Take `Nc1cc(Sc2cnc3[nH]c(N4CCC5(CC4)Cc4ccccc4[C@H]5N)nc3n2)c(Cl)c(Cl)n1` [Example 266, (S)-1′-(5-((6-amino-2,3-dichloropyridin-4-yl)thio)-1H-imidazo[4,5-b]pyrazin-2-yl)-1,3-dihydrospiro[indene-2,4′-piperidin]-1-amine]: the IC50 in test [1] (Homo sapiens, KYSE-520, 2 h) is over 5 µM; in test [2], under 0.5 µM.

For the compound `Nc1nccc(Sc2cnc3[nH]c(N4CCC5(CC4)Cc4ccccc4[C@H]5N)nc3n2)c1Cl` [Example 132, (S)-1′-(5-((2-amino-3-chloropyridin-4-yl)thio)-1H-imidazo[4,5-b]pyrazin-2-yl)-1,3-dihydrospiro[indene-2,4′-piperidin]-1-amine], the IC50 is under 1 µM in test [1] (Homo sapiens, KYSE-520, 2 h) and under 0.5 µM in test [2].

In the case of `CC(C)(C)S(=O)(=O)N[C@@H]1c2cccnc2CC12CCN(c1nc3nc(Sc4cccnc4C(F)(F)F)cnc3[nH]1)CC2` [Example 142, (S)-2-methyl-N-(1′-(5-((2-(trifluoromethyl)pyridin-3-yl)thio)-1H-imidazo[4,5-b]pyrazin-2-yl)-5,7-dihydrospiro[cyclopenta[b]pyridine-6,4′-piperidin]-5-yl)propane-2-sulfonamide], the IC50 in test [1] (Homo sapiens, KYSE-520, 2 h) was over 5 µM; in test [2], 0.5 to 3 µM.

On to `N#Cc1c(Sc2cnc3[nH]c(N4CCC5(CC4)Cc4ccccc4[C@H]5N)nc3n2)ccnc1N` [Example 215, (S)-2-amino-4-((2-(1-amino-1,3-dihydrospiro[indene-2,4′-piperidin]-1′-yl)-1H-imidazo[4,5-b]pyrazin-5-yl)thio)nicotinonitrile], for which the IC50 in test [1] (Homo sapiens, KYSE-520, 2 h) was under 1 µM; in test [2], under 0.5 µM.

For the compound `COc1ncccc1Sc1cnc2[nH]c(N3CCC4(CC3)Cc3ccc(Br)cc3[C@H]4N)nc2n1` [Example 231, (S)-6-bromo-1′-(5-((2-methoxypyridin-3-yl)thio)-1H-imidazo[4,5-b]pyrazin-2-yl)-1,3-dihydrospiro[indene-2,4′-piperidin]-1-amine], the concentration for half-maximal inhibition (IC50) in test [1] (Homo sapiens, KYSE-520, 2 h) was under 1 µM; in test [2] it was under 0.5 µM.

For `COc1ccc2nccc(Sc3cnc4[nH]c(N5CCC6(CC5)Cc5ccccc5[C@H]6N)nc4n3)c2n1` [Example 220, (S)-1′-(5-((6-methoxy-1,5-naphthyridin-4-yl)thio)-1H-imidazo[4,5-b]pyrazin-2-yl)-1,3-dihydrospiro[indene-2,4′-piperidin]-1-amine], the concentration for half-maximal inhibition (IC50) is 1 to 5 µM in test [1] (Homo sapiens, KYSE-520, 2 h) and under 0.5 µM in test [2].

For the compound `N[C@@H]1c2cccnc2CC12CCN(c1nc3nc(Sc4ccnc(OC5COC5)c4Cl)cnc3[nH]1)CC2` [Example 153, (S)-1′-(5-((3-chloro-2-(oxetan-3-yloxy)pyridin-4-yl)thio)-1H-imidazo[4,5-b]pyrazin-2-yl)-5,7-dihydrospiro[cyclopenta[b]pyridine-6,4′-piperidin]-5-amine], the 50% inhibitory concentration (IC50) in test [1] (Homo sapiens, KYSE-520, 2 h) is over 5 µM; in test [2], 0.5 to 3 µM.

For the compound `Nc1nccc(Sc2cnc3[nH]c(N4CCC5(CC4)Cc4ncc(F)cc4[C@H]5N)nc3n2)c1Cl` [Example 230, (S)-1′-(5-((2-amino-3-chloropyridin-4-yl)thio)-1H-imidazo[4,5-b]pyrazin-2-yl)-3-fluoro-5,7-dihydrospiro[cyclopenta[b]pyridine-6,4′-piperidin]-5-amine], the IC50 in test [1] (Homo sapiens, KYSE-520, 2 h) is 1 to 5 µM; in test [2], under 0.5 µM.

Values taken from US20220289753A1, “SHP2 INHIBITORS” (IRBM S.P.A., priority 2019, published 2022).
